Assay results: patent US8222300B2, “Methods of treating parkinson's disease using halogenated volatile compounds” (Mouse Specifics, Inc., priority 2007, dated 2012)

Test system: adult female CD-1 mice
Type: in vivo
Method: Isoflurane is a halogenated inhalation anesthetic and is routinely used in laboratory animals for its anesthetic properties. In this experiment, posture and gait in mice after brief isoflurane anesthesia was investigated.
Ventral plane videography was used to image 4 adult female CD-1 mice walking 25 cm/s on a transparent treadmill belt just prior to 5 minutes of isoflurane (2.5% isoflurane final concentration in 100% oxygen) anesthesia. Gait analysis was again performed at 25 cm/s 1, 15, 30 and 60 minutes after the animals regained their righting reflex. Mice were placed in a chamber and delivered the isoflurane via a system which vaporized the isoflurane and mixed it with the oxygen using an anesthesia system (EZ Anesthesia™, Euthanex).
When the mice first emerged from the anesthesia (animals were moved from an anesthesia box to room air, including oxygen and CO2), they were groggy for about 2-40 seconds. Following the brief groggy period, a supranormal function became apparent as their gait (including stride length, stance width, and swing duration) was improved relative to prior to the administration of the isoflurane.

[1] = following cessation of anesthesia

FC(F)OC(Cl)C(F)(F)F (stereo not shown) [isoflurane, 2-chloro-2-(difluoromethoxy)-1,1,1-trifluoro-ethane]
Increase of swing duration compared to baseline (1 minute after recovery): ~50% | Stride length (1 minute after recovery from 5 minutes of 2.5% isoflurane in 100% oxygen, treadmill 25 cm/s, baseline 6.3±0.1 cm, P<0.05): 7.6±0.2 cm | Stance width variability (1 minute after recovery from isoflurane, versus baseline): lower | Swing duration (1 minute after recovery, baseline 77±3 ms, P<0.05): 103 ± 3 ms | Propulsion duration of the hind limbs (1 minute after recovery, baseline 128±5 ms, P<0.05): 167 ± 6 ms | Stepping frequency (1 minute after recovery, treadmill 25 cm/s, baseline 4.1±0.1 Hz, P<0.05): 3.3±0.1 Hz | Persistence of some supranormal gait characteristics [1]: ~30 min | Time for all gait metrics to return to baseline [1]: ≤ 60 min | Duration of groggy period on emergence from anesthesia (mouse, in vivo): 2 to 40 s | Increase in stride length (some mice emerging from isoflurane anesthesia): about 25%
